Results: patent publication US20050196469A1, “Micronutrient supplement combination for acne treatment and prevention” (priority 2004, published 2005)

How the values were obtained:
[1] = oral ingestion; cited from earlier work
[2] = test system: acneiform eruptions; test: Case reports: effect on acneiform eruptions in patients; format: in vivo, human
Text: The effect of the micronutrient/mineral supplement of the present invention on acneiform eruptions is illustrated below.
1. patient six was a person with a long history of cystic acne vulgaris. They had no history of polycystic ovarian syndrome, ovarian cysts, oligomenorrhea or amenorrhea. Topical benzoyl peroxide and antibiotics provided no relief of their acne. They refused both oral contraceptive use or a trial of the diuretic spironolactone for possible acne benefits. They were contemplating a trial of accutane, when they decided to see an endocrinologist for a possible hormone etiology of their skin condition. Complete blood count, chemistries, thyroid function tests, AM cortisol were normal. Vitamin B12 and folate concentrations were normal; the total testosterone was 40 ng and not elevated; the androgenic steroids—DHEAS and androstenedione were normal. The 25 hydroxyvitamin D concentration was <5 ng/ml and intact parathyroid hormone (PTH) was elevated at 69 pg/ml (normal up to 65 pg). […] At four months, the 25 vitamin D concentration was 31 ng/ml and the total vitamin D3 was reduced to 2000 IU daily.
2. patient two was a person with chronic fatigue, inability to lose weight and severe chronic acne vulgaris unresponsive to topical treatments. They had been on Accutane multilple times but their skin improvement was transient with continual periodic acne eruptions. […] They were prescribed vitamin D3 at 4000 IU daily with calcium carbonate (elemental calcium) at 1500 mg; folate 2000 IU; vitamin B6 at 50 mcg and vitamin B12 at 500 mcg daily (B12 was prescribed at 500 mcg for 2 weeks only because of B12 deficiency) and then lowered to 50 mcg daily). A repeat 25 vitamin D level at 3 months was 30 ng and the total daily vitamin D was then lowered to 2000 IU daily; repeat B12 level was normal.
3. patient one was a person with a known history of oligomenorrhea/amenorrhea. Their menstrual cycles had been irregular with fewer than 8 cycles per year. Oral contraceptives prescribed 5 years ago normalized their menstrual cycles. […]

Compound: C=C1CC[C@H](O)C/C1=C/C=C1\CCC[C@]2(C)[C@@H]([C@H](C)CCCC(C)C)CC[C@@H]12 [cholecalciferol]
- daily dose at which toxicity occurs [1]: 40,000 IU

Compound: O=C(OOC(=O)c1ccccc1)c1ccccc1 [benzoyl peroxide]
- relief of acne ([2]; patient six, earlier topical treatment): no relief

Compound: CC1=C(/C=C/C(C)=C/C=C/C(C)=C\C(=O)O)C(C)(C)CCC1 [Accutane]
- effect on acne ([2]; patient one, earlier and current treatment): without success
- skin improvement ([2]; patient two, earlier treatment, multiple courses): transient
